Laboratory results published in ChEMBL document CHEMBL2311320, “A-ring modification of SCH 900229 and related chromene sulfone γ-secretase inhibitors” (Bioorg Med Chem Lett, 2013).

Tests used:
Assay type in all cases: cell-based, Homo sapiens
Gamma-secretase [1] = assay: Inhibition of gamma-secretase (unknown origin) expressed in HEK293 cells co-expressing […] mutant assessed as reduction of amyloid beta-42 production
Gamma-secretase [2] = assay: Inhibition of gamma-secretase (unknown origin) expressed in HEK293 cell membrane co-expressing […] mutant assessed as reduction of amyloid beta-40 production
Gamma-secretase [3] = assay: Inhibition of gamma-secretase (unknown origin) expressed in HEK293 cells co-expressing […] mutant assessed as reduction of amyloid beta-40 production

SMILES	IC50 (Gamma-secretase [1])	IC50 (Gamma-secretase [2])	IC50 (Gamma-secretase [3])
CC[C@@H]1C[C@@H]2[C@@H](CC[C@@]3(S(=O)(=O)c4ccc(C#N)cc4)c4c(F)ccc(F)c4OC[C@@H]23)NS1(=O)=O	2 nM	4.7 nM	4 nM
CS(=O)(=O)CC[C@@H]1OCC[C@@]2(S(=O)(=O)c3ccc(C(F)(F)F)cc3)c3c(F)ccc(F)c3OC[C@@H]12	4 nM	15 nM	11 nM
CC[C@@H]1C[C@@H]2[C@@H](CC[C@@]3(S(=O)(=O)c4ccc(C(F)(F)F)cc4)C4=C(OC[C@@H]23)C(F)(F)C=CC4=O)NS1(=O)=O	25 nM	3.9 nM	46 nM
O=S(=O)(NC[C@@H]1CC[C@@]2(S(=O)(=O)c3ccc(C(F)(F)F)cc3)c3c(F)ccc(F)c3OC[C@H]2C1)C1CC1	19 nM	92 nM	6.8 nM
CC[C@@H]1C[C@@H]2[C@@H](CC[C@@]3(S(=O)(=O)c4ccc(C(F)(F)F)cc4)c4c(F)ccc(F)c4OC[C@@H]23)NS1(=O)=O	2 nM	1.9 nM	5 nM
CS(=O)(=O)CC[C@@H]1OCC[C@@]2(S(=O)(=O)c3ccc(Cl)cc3)C3=C(OC[C@@H]12)C(F)(F)C=CC3=O	11 nM	1.2 nM	26 nM
CS(=O)(=O)CC[C@@H]1CCC[C@@]2(S(=O)(=O)c3ccc(C(F)(F)F)cc3)C3=C(OC[C@@H]12)C(F)(F)C=CC3=O	49 nM	1.9 nM	130 nM
O=C1C=CC(F)(F)C2=C1[C@]1(S(=O)(=O)c3ccc(C(F)(F)F)cc3)CC[C@@H](NS(=O)(=O)C3CC3)C[C@@H]1CO2	110 nM	6.8 nM	280 nM
CS(=O)(=O)CC[C@@H]1OCC[C@@]2(S(=O)(=O)c3ccc(Cl)cc3)c3c(F)ccc(F)c3OC[C@@H]12	1 nM	1.3 nM	4 nM
CS(=O)(=O)CC[C@@H]1OCC[C@@]2(S(=O)(=O)c3ccc(C#N)cc3)C3=C(OC[C@@H]12)C(F)(F)C=CC3=O	410 nM	21 nM	1600 nM
CS(=O)(=O)CC[C@@H]1OCC[C@@]2(S(=O)(=O)c3ccc(C(F)(F)F)cc3)C3=C(OC[C@@H]12)C(F)(F)C=CC3=O	27 nM	1.8 nM	56 nM
O=C1C=CC(F)(F)C2=C1[C@]1(S(=O)(=O)c3ccc(C(F)(F)F)cc3)CCC[C@@H](CNS(=O)(=O)C(F)(F)F)[C@@H]1CO2	200 nM	78 nM	330 nM
O=S(=O)(NC[C@@H]1CCC[C@@]2(S(=O)(=O)c3ccc(C(F)(F)F)cc3)c3c(F)ccc(F)c3OC[C@@H]12)C(F)(F)F	32 nM	54 nM	73 nM
CC[C@@H]1C[C@@H]2[C@@H](CC[C@@]3(S(=O)(=O)c4ccc(C#N)cc4)C4=C(OC[C@@H]23)C(F)(F)C=CC4=O)NS1(=O)=O	31 nM	3.5 nM	110 nM
CS(=O)(=O)CC[C@@H]1OCC[C@@]2(S(=O)(=O)c3ccc(C#N)cc3)c3c(F)ccc(F)c3OC[C@@H]12	9 nM	66 nM	25 nM
CS(=O)(=O)CC[C@@H]1CCC[C@@]2(S(=O)(=O)c3ccc(C(F)(F)F)cc3)c3c(F)ccc(F)c3OC[C@@H]12	21 nM	43 nM	63 nM
